Where two headings read alike, the source gives them in different places.
Legend:
[1] = system: Akt phosphorylated at Thr308 in PC-3 cells; test: Cellular assay: phosphorylation of Akt at Thr308 in PC-3 cells (MSD ELISA); type: cell-based; conditions: PC-3 cells, 60 min compound incubation, MSD ELISA, read-out: IC50 pAkt_Thr308
Outline: (§1)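 Compound treatment of PC-3 cells lasted 60 min at 37° C (0.3% DMSO). Lysates were then applied to plates carrying capture antibodies for the relevant phospho-site, and bound Akt was detected with an electrochemiluminescent anti-total Akt antibody; IC50s derive from five-point curves.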

[2] = system: Akt phosphorylated at Ser473 in PC-3 cells; test: Cellular assay: phosphorylation of Akt at Ser473 in PC-3 cells (MSD ELISA); type: cell-based; conditions: PC-3 cells, 60 min compound incubation, MSD ELISA, read-out: IC50 pAkt_S473
Outline: as §1

PI3Kβ = target: T1, PI3Kβ (Homo sapiens, UniProt P42338); test: Enzyme binding assay (KINOMEscan, DiscoveRx); conditions: PIK3Cβ_h, read-out: Kd PIK3Cβ_h
T1 construct: purchased DiscoveRx Corporation, San Diego (contract service, KINOMEscan)
T1 sequence (P42338 whole entry): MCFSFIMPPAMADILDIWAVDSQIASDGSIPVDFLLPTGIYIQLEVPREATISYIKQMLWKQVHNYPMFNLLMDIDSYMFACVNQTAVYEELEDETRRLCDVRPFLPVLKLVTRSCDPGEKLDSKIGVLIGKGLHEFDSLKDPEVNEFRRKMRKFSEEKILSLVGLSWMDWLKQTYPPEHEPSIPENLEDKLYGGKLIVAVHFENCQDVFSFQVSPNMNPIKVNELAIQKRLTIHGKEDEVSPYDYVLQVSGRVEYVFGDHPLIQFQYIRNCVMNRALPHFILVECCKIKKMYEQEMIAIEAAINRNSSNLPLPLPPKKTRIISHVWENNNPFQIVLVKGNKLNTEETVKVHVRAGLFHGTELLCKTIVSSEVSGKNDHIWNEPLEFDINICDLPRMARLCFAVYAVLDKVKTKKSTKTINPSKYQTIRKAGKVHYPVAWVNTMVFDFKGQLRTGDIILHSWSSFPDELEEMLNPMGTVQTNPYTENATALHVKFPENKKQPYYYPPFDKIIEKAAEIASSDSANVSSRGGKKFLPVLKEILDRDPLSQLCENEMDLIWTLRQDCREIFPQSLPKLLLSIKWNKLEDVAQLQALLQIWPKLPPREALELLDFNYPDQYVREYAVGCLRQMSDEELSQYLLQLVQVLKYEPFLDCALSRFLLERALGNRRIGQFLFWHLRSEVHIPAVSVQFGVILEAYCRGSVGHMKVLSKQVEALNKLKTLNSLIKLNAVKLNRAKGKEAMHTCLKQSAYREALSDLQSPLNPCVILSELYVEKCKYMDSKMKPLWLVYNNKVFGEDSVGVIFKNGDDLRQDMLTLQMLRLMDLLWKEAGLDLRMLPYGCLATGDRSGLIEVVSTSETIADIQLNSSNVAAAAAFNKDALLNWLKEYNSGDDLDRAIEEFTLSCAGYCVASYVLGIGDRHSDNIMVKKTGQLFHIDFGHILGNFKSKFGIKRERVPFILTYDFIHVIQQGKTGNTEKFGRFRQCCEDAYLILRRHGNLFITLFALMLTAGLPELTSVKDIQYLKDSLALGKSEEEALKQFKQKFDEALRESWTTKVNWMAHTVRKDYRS
Outline: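 Using the KINOMEscan format, the enzyme binding affinity of each compound was determined. Each value is the inhibitor binding constant, Kd (nM).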

kinase enzymes [3] = target: T2, kinase enzymes (Homo sapiens, UniProt P42336); test: Enzyme binding assay (KINOMEscan, DiscoveRx), further kinases of Table A; conditions: PIK3Cα_h
T2 construct: purchased DiscoveRx Corporation, San Diego (contract service, KINOMEscan)
T2 sequence (P42336 whole entry): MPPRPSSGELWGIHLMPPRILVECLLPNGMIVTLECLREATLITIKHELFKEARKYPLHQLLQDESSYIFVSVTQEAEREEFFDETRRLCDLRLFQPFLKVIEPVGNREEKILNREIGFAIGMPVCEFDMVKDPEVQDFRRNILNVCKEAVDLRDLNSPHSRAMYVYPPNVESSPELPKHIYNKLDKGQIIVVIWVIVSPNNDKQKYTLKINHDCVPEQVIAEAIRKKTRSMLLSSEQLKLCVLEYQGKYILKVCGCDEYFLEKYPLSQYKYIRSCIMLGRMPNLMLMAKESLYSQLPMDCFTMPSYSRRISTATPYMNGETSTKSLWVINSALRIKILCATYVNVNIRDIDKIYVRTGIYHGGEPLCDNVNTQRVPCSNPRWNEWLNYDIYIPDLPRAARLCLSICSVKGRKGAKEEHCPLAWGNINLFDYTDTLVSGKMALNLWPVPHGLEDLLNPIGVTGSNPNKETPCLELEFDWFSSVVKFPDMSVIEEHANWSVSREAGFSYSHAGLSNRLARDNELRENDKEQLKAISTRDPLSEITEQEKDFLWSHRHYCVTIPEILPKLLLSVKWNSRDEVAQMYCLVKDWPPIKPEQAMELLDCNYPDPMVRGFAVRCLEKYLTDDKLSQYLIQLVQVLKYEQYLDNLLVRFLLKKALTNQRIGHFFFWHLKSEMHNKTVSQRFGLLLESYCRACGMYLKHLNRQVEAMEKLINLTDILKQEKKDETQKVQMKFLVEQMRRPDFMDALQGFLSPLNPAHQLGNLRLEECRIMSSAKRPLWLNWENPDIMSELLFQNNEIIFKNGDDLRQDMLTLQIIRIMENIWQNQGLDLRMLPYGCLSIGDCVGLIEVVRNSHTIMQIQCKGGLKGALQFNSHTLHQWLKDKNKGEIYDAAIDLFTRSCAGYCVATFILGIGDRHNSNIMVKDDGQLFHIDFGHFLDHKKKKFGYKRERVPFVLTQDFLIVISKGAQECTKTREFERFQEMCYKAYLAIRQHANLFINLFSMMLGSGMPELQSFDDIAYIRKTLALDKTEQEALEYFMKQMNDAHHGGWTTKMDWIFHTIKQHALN
Outline: (§2)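 Uses KINOMEscan technology to determine binding affinity toward the kinase enzymes.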

kinase enzymes [4] = target: T3, kinase enzymes (Homo sapiens, UniProt P42345); test: as above; conditions: MTOR_h
T3 construct: purchased DiscoveRx Corporation, San Diego (contract service, KINOMEscan)
Outline: as §2

kinase enzymes [5] = target: T4, kinase enzymes (Homo sapiens, UniProt P48736); test: as above; conditions: PIK3Cγ_h
T4 construct: purchased DiscoveRx Corporation, San Diego (contract service, KINOMEscan)
T4 sequence (P48736 whole entry): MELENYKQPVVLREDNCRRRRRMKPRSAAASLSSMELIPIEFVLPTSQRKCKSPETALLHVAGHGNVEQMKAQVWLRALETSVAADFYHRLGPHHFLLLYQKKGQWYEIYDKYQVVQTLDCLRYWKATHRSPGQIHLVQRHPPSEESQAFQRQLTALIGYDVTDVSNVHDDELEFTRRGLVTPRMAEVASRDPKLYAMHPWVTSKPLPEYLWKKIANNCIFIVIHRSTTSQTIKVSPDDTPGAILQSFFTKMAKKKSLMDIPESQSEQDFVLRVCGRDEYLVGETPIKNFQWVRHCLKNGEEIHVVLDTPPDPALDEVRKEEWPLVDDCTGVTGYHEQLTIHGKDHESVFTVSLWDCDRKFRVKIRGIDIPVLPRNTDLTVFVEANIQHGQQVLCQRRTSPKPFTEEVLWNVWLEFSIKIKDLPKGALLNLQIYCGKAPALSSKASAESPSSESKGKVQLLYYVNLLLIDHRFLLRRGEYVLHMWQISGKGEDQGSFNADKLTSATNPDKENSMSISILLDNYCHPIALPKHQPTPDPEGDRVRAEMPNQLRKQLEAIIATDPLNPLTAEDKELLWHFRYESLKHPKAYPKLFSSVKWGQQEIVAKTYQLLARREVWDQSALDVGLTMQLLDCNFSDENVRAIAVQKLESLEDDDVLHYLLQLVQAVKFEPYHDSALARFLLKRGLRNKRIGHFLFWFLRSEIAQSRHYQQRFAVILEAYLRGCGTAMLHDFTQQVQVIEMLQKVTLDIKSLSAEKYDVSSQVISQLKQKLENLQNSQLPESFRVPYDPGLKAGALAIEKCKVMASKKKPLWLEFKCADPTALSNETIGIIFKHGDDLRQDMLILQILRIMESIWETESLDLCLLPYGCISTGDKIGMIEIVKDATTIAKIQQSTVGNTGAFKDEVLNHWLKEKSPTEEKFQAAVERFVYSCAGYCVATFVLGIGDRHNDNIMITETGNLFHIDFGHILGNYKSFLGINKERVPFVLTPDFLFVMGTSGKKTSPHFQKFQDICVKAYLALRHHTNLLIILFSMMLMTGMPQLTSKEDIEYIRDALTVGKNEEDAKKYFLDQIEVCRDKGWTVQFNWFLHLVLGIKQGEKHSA
Outline: as §2

PI3Kδ = target: T5, PI3Kδ (Homo sapiens, UniProt O00329); test: Enzyme binding assay (KINOMEscan, DiscoveRx); conditions: PIK3Cδ_h
T5 construct: purchased DiscoveRx Corporation, San Diego (contract service, KINOMEscan)
T5 sequence (O00329 1-1044): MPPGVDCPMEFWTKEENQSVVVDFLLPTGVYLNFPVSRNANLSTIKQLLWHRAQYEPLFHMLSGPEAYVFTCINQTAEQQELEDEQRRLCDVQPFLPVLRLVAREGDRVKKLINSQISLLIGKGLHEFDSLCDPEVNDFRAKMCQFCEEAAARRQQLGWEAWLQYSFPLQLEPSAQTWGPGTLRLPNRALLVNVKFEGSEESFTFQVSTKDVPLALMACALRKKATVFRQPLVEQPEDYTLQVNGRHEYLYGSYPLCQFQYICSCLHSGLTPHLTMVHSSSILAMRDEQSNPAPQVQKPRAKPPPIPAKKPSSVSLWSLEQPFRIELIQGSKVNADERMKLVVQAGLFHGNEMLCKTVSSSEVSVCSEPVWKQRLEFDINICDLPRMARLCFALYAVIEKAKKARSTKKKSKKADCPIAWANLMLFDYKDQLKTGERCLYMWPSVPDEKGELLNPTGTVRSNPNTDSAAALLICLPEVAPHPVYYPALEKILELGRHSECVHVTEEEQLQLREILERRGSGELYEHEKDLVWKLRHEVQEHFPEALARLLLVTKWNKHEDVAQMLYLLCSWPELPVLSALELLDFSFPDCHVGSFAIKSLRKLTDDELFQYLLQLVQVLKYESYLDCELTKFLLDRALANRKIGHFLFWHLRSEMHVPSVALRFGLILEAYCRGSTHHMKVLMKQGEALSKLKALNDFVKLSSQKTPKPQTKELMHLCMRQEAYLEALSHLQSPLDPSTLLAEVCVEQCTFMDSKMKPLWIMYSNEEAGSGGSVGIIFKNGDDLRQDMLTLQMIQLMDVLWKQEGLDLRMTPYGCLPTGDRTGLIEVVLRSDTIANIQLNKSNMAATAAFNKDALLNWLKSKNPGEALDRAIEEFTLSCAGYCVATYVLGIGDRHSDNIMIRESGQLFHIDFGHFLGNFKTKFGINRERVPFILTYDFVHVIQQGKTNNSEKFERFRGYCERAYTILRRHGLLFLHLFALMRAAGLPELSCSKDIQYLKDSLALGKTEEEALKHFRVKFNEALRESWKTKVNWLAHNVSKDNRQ
Outline: as §2

Row | SMILES | IC50 ([1]; Homo sapiens, PC-3, 1 h) | melting point | IC50 ([2]; Homo sapiens, PC-3, 1 h) | Kd (PI3Kβ) | Kd (kinase enzymes [3]) | Kd (kinase enzymes [4]) | Kd (kinase enzymes [5]) | Kd (PI3Kδ) | IC50 [1] | IC50 [2]
1 | CN(C)C(=O)c1cc(C2CCCN2c2ccccc2)c2nc(N3CCOCC3)cnc2c1 (stereo not shown) [Compound 27] | 14 nM | 80 °C | 22 nM | 1 nM | 269 nM | > 30200 nM | 1620 nM | 58 nM |  | 
2 | CN(C)C(=O)c1cc(C2CCCN2c2cc(F)cc(CO)c2)c2nc(N3CCOCC3)cnc2c1 (stereo not shown) [Compound 45] | 72 nM | 80 °C | 166 nM | 3 nM | 170 nM | 31600 nM | 2090 nM | 126 nM |  | 
3 | CC(Nc1cccc(C#N)c1)c1cc(C(=O)N(C)C)cc2ncc(N3CCOCC3)nc12 (stereo not shown) [Compound 155] | 339 nM | 186 °C | 437 nM | 6 nM | 2140 nM | > 30200 nM | 6610 nM | 759 nM |  | 
4 | CC(Nc1cc(F)cc(F)c1)c1cc(CNCCS(C)(=O)=O)cc2ncc(N3CCOCC3)nc12 (stereo not shown) [Compound 173] | 52 nM | 80 °C | 78 nM | 1 nM | 832 nM | 24500 nM | 3550 nM | 372 nM |  | 
5 | CC(O)c1cc(C2CCCN2c2cc(F)cc(F)c2)c2nc(N3CCOCC3)cnc2c1 (stereo not shown) [Compound 16] | 2 nM | 80 °C | ~5 nM | 1 nM | 93 nM | 17000 nM | 126 nM | 16 nM |  | 
6 | CC(Nc1cc(F)cc(F)c1)c1cc(CN2CC3(C2)CS(=O)(=O)C3)cc2ncc(N3CCOCC3)nc12 (single isomer, unassigned) [Compound 161] |  | 228 °C |  | 776 nM | > 30200 nM | > 30200 nM | > 30200 nM | > 30200 nM | > 513 nM | > 513 nM
7 | CC(Nc1cc(F)cc(F)c1)c1cc(C(=O)N(C)CCO)cc2ncc(N3CCOCC3)nc12 (stereo not shown) [Compound 145] | 9 nM | 80 °C | ~32 nM | 1 nM | 537 nM | 23400 nM | 1860 nM | 102 nM |  | 
8 | CNCCNC(=O)c1cc(C(C)Nc2cc(F)cc(Cl)c2)c2nc(N3CCOCC3)cnc2c1 (stereo not shown) [Compound 147] | 6 nM | 80 °C | 10 nM | 0.4 nM | 776 nM | > 30200 nM | 1150 nM | 129 nM |  | 
9 | COC(=O)c1cc(C2CCCN2c2cc(F)cc(F)c2)c2nc(N3CCOCC3)cnc2c1 (single isomer, unassigned) [Compound 31] |  | 213 °C |  | > 32000 nM | > 32000 nM | > 32000 nM | > 32000 nM | > 32000 nM | > 513 nM | > 513 nM

Results, then the compound that gave them:

Row | IC50 ([1]; Homo sapiens, PC-3, 1 h) | melting point | IC50 ([2]; Homo sapiens, PC-3, 1 h) | Kd (PI3Kβ) | Kd (kinase enzymes [3]) | Kd (kinase enzymes [4]) | Kd (kinase enzymes [5]) | Kd (PI3Kδ) | IC50 [1] | IC50 [2] | SMILES
10 | 74 nM | 80 °C | ~126 nM | 10 nM | 11000 nM | > 30200 nM | 26900 nM | 417 nM |  |  | CC(Oc1ccc(F)c(F)c1)c1cc(C(=O)N2CC[C@H](N(C)C)C2)cc2ncc(N3CCOCC3)nc12 (single isomer, unassigned) [Compound 363a]
11 | 141 nM | 218 °C | 145 nM | 12 nM | 7080 nM | 12000 nM | 18200 nM | 759 nM |  |  | O=C(NCCO)c1cc(NCc2cccc(F)c2)c2nc(N3CCOCC3)cnc2c1 [Compound 230]
12 |  | 89.8 °C |  | 11 nM | 1510 nM | 25700 nM | 7240 nM | 1070 nM | 68 nM | 115 nM | CC(Nc1cccc(F)c1)c1cc(C(=O)NC[C@@H](C)O)cc2ncc(N3CCOCC3)nc12 (single isomer, unassigned) [Compound 338a]
13 | ~372 nM | 80 °C | 457 nM | 24 nM | 2340 nM | 26300 nM | 18600 nM | 1590 nM |  |  | CN(C)C(=O)c1cc(NCc2ccc(F)cc2)c2nc(N3CCOCC3)cnc2c1 [Compound 400]
14 |  | 120 °C |  | 1 nM | 105 nM | > 30200 nM | 5010 nM | 204 nM | 4 nM | 6 nM | CC(Nc1cc(F)cc(F)c1)c1cc(C(=O)N2CCNC(C(F)(F)F)C2)cc2ncc(N3CCOCC3)nc12 (single isomer, unassigned) [Compound 237a]
15 |  | 102 °C |  | 0.3 nM | 1510 nM | 23400 nM | 4070 nM | 72 nM | 3 nM | 5 nM | CC(Nc1ccc(F)c(F)c1)c1cc(C(=O)NCCN(C)C)cc2ncc(N3CCOCC3)nc12 (single isomer, unassigned) [Compound 281a]
16 | 182 nM | 80 °C | 339 nM | 10 nM | 6310 nM | > 30200 nM | 27500 nM | 1780 nM |  |  | CC(Nc1cc(F)cc(F)c1)c1cc(C2=NC(C)(C)CO2)cc2ncc(N3CCOCC3)nc12 (stereo not shown) [Compound 186]
17 | 115 nM | 77 °C | 145 nM | 5 nM | 5370 nM | 19100 nM | 6460 nM | 372 nM |  |  | CC(Nc1ccc(F)c(F)c1)c1cc(C(=O)NCCO)cc2ncc(N3CCOCC3)nc12 (stereo not shown) [Compound 279]

— patent US10526316B2, “Quinoxaline and pyridopyrazine derivatives as PI3Kβ inhibitors” (Janssen Pharmaceutica NV, priority 2015, dated 2020)
